In brackets after ≈: the same amount, converted by molar mass.
Key:
Assay type in all cases: cell-based
E. coli imp- = assay: MIC determination, initial screen, E. coli imp-; details: Escherichia coli, 24 h, read-out: MIC E. coli imp
Text: (§1) The Streptococcus pyogenes strains, Klebsiella pneumoniae, Escherichia coli, Staphylococcus aureus, Enterococcus faecalis used in the antibacterial activity studies ATCC 14289, 49399, 13883, 25922, 13709, 29212, respectively, were obtained from the American Type Culture Collection, Rockville, Md. The strain E. coli imp- is a mutant strain of wild type E. coli with increased outer membrane permeability. In initial screens, E. coli imp- and S. pyrogenes (ATCC 14289) were used. The E. coli imp-strain was grown in LB broth, and the S. pyogenes strain was grown in Todd-Hewitt broth. Interesting compounds were further evaluated in the tier II screens against other bacterial screens. S. aureus was grown in trypticase soy broth, E. faecalis in Todd-Hewitt broth, wild type E. coli and K. pneumoniae, in nutrient broth. All bacterial were grown at 37° C.
(§2) The assays were carried out in 150 μL volume in duplicate in 96-well clear flat-bottom plates. The bacterial suspension from an overnight culture growth in appropriate medium was added to a solution of test compound in 4% DMSO in water. Final bacterial inoculum was approximately 10^5 -10^6 CFU/well. The percent growth of the bacteria in test wells relative to that observed for a well containing no compound was determined by measuring absorbance at 595 nm (A595) after 24 h. […] Both ampicillin and tetracycline were used as antibiotic-positive controls in each screening assay for S. pyogenes, E. coli imp-, E. coli, S. aureus, E. faecalis, K. pneumoniae and P. vulgaris. Ciprofloxacin was used as an antibiotic positive control in each screening assay for P. aeruginosa.

S. pyogenes [1] = assay: MIC determination, initial screen, S. pyogenes; details: Streptococcus pyogenes, ATCC14289; Table 1; ATCC 14289 (initial screen); 24 h, A595
Text: as §1, §2

E. coli = assay: MIC determination, tier II screen, wild type E. coli (#25922); details: Escherichia coli, Table 2, 24 h, A595
Text: as §1, §2

S. aureus = assay: MIC determination, tier II screen, S. aureus (#13709); details: Staphylococcus aureus; Table 2; 24 h, A595
Text: as §1, §2

K. pneumoniae = assay: MIC determination, tier II screen, K. pneumoniae (#13883); details: Klebsiella pneumoniae; Table 2; 24 h, A595
Text: as §1, §2

S. pyogenes [2] = assay: MIC determination, tier II screen, S. pyogenes (#49399); details: Streptococcus pyogenes; Table 2; 24 h, A595
Text: as §1, §2

E. faecalis = assay: MIC determination, tier II screen, E. faecalis (#29212); details: Enterococcus faecalis; Table 2; 24 h, A595
Text: as §1, §2

| Structure (SMILES) | MIC (E. coli imp-) | MIC (S. pyogenes [1]) | MIC (E. coli) | MIC (S. aureus) | MIC (K. pneumoniae) | MIC (S. pyogenes [2]) | MIC (E. faecalis) |
| --- | --- | --- | --- | --- | --- | --- | --- |
| COC(=O)c1nc(Cl)c(NC2CCN(c3nc(N)c4cc(OC)c(OC)cc4n3)CC2)nc1N [Compound 1, 3-Amino-5-[1-(4-amino-6,7-dimethoxy-quinazolin-2-yl)-piperidin-4-ylamino]-6-chloro-pyrazine-2-carboxylic acid methyl ester] | > 25 µM | 12 to 25 µM (≈ 5.87 to 12.2 µg/mL) | – | – | – | – | – |
| COC(=O)c1ncc(NC2CCN(c3nc(N)c4cc(OC)c(OC)cc4n3)CC2)nc1N [Compound 2, 3-Amino-5-[1-(4-amino-6,7-dimethoxy-quinazolin-2-yl)-piperidin-4-ylamino]-pyrazine-2-carboxylic acid methyl ester] | > 50 µM | > 50 µM | – | – | – | – | – |
| COC(=O)c1ccc(NC2CCN(c3nc(N)c4cc(OC)c(OC)cc4n3)CC2)nc1 [Compound 3, 6-[1-(4-Amino-6,7-dimethoxy-quinazolin-2-yl)-piperidin-4-ylamino]-nicotinicacid methyl ester] | > 50 µM | 25 to 50 µM (≈ 11 to 21.9 µg/mL) | – | – | – | – | – |
| COC(=O)c1ccc(NC2CCN(c3nc(N)c4cc(OC)c(OC)cc4n3)CC2)cc1 [Compound 4, 4-[1-(4-Amino-6,7-dimethoxy-quinazolin-2-yl)-piperidin-4-ylamino]-benzoic acid methyl ester] | 5 to 25 µM (≈ 2.19 to 10.9 µg/mL) | 5 to 25 µM (≈ 2.19 to 10.9 µg/mL) | > 100 µM | > 100 µM | > 100 µM | 5 to 25 µM (≈ 2.19 to 10.9 µg/mL) | 20 to 40 µM (≈ 8.75 to 17.5 µg/mL) |
| COc1cc2nc(N3CCC(Nc4ccc(C(=O)OC(C)(C)C)cc4)CC3)nc(N)c2cc1OC [Compound 5, 4-[1-(4-Amino-6,7-dimethoxy-quinazolin-2-yl)-piperidin-4-ylamino]-benzoic acid tert-butyl ester] | 6 to 12 µM (≈ 2.88 to 5.75 µg/mL) | 3 to 6 µM (≈ 1.44 to 2.88 µg/mL) | > 100 µM | > 100 µM | > 100 µM | 6 to 12 µM (≈ 2.88 to 5.75 µg/mL) | 6 to 12 µM (≈ 2.88 to 5.75 µg/mL) |
| COc1cc2nc(N3CCC(Nc4ccc(C(=O)OC(C)(C)C)cc4[N+](=O)[O-])CC3)nc(N)c2cc1OC [Compound 6, 4-[1-(4-Amino-6,7-dimethoxyquinazolin-2-yl)piperidin-4-ylamino]-3-nitrobenzoic acid tert-butyl ester] | 25 to 50 µM (≈ 13.1 to 26.2 µg/mL) | 50 to 100 µM (≈ 26.2 to 52.5 µg/mL) | – | – | – | – | – |
| COc1cc2cnc(N3CCC(Nc4ccc(C(=O)OC(C)(C)C)cc4)CC3)nc2cc1OC [Compound 13, 4-[1-(6,7-Dimethoxyquinazolin-2-yl)piperidin-4-ylamino]benzoic acid tert-butyl ester] | > 20 µM | > 20 µM | – | – | – | – | – |
| COc1cc2nc(N3CCC(Nc4ccc(C(=O)OC(C)(C)C)cc4)CC3)nc(OC)c2cc1OC [Compound 14, 4-[1-(4,6,7-Trimethoxyquinazolin-2-yl)piperidin-4-ylamino]benzoic acid tert-butyl ester] | < 100 µM | < 100 µM | – | – | – | – | – |
| COc1cc2nc(N3CCC(Nc4ccc(C(=O)OC(C)(C)C)cc4)CC3)[nH]c(=O)c2cc1OC [Compound 15, 4-[1-(6,7-Dimethoxy-4-oxo-3,4-dihydroquinazolin-2-yl)piperidin-4-ylamino]benzoic acid tert-butyl ester] | > 100 µM | > 100 µM | – | – | – | – | – |
| COc1cc2nc(N3CCC(Nc4ccc(C(=O)OC(C)(C)C)cc4)CC3)nc(Nc3ccc(C)cc3)c2cc1OC [Compound 16, 4-[1-(6,7-Dimethoxy-4-p-tolylaminoquinazolin-2-yl)piperidin-4-ylamino]benzoic acid tert-butyl ester] | 10 to 20 µM (≈ 5.7 to 11.4 µg/mL) | 2.5 to 5 µM (≈ 1.42 to 2.85 µg/mL) | – | – | – | – | – |
| CC(C)(C)OC(=O)c1ccc(NC2CCN(c3nc(N)c4ccccc4n3)CC2)cc1 [Compound 17, 4-[1-(4-Aminoquinazolin-2-yl)piperidin-4-ylamino]benzoic acid tert-butyl ester] | < 100 µM | < 100 µM | – | – | – | – | – |
| COc1cc2nc(N3CCC(Nc4nc(N)c(C(=O)O)nc4Cl)CC3)nc(N)c2cc1OC [Compound 18, 3-Amino-5-[1-(4-amino-6,7-dimethoxyquinazolin-2-yl)piperidin-4-ylamino]-6-chloropyrazine-2-carboxylic acid] | > 100 µM | > 100 µM | – | – | – | – | – |
| COc1cc2nc(N3CCC(Nc4cnc(C(=O)O)c(N)n4)CC3)nc(N)c2cc1OC [Compound 19, 3-Amino-5-[1-(4-amino-6,7-dimethoxyquinazolin-2-yl)piperidin-4-ylamino]pyrazine-2-carboxylic acid] | > 25 µM | > 25 µM | – | – | – | – | – |
| COc1cc2nc(N3CCC(Nc4ccc(C(=O)O)cn4)CC3)nc(N)c2cc1OC [Compound 20, 6-[1-(4-Amino-6,7-dimethoxyquinazolin-2-yl)piperidin-4-ylamino]nicotinic acid] | > 50 µM | > 20 µM | – | – | – | – | – |
| COc1cc2nc(N3CCC(Nc4ccc(C(=O)O)cc4[N+](=O)[O-])CC3)nc(N)c2cc1OC [Compound 21, 4-[1-(4-Amino-6,7-dimethoxyquinazolin-2-yl)piperidin-4-ylamino]-3-nitrobenzoic acid] | > 20 µM | > 20 µM | – | – | – | – | – |
| COc1cc2nc(N3CCC(Nc4ccc(C(=O)O)cc4)CC3)nc(N)c2cc1OC [Compound 22, 4-[1-(4-Amino-6,7-dimethoxyquinazolin-2-yl)piperidin-4-ylamino]benzoic acid] | 0.4 to 2 µM (≈ 0.169 to 0.847 µg/mL) | > 25 µM | 60 to 80 µM (≈ 25.4 to 33.9 µg/mL) | 6 to 12 µM (≈ 2.54 to 5.08 µg/mL) | 6 to 12 µM (≈ 2.54 to 5.08 µg/mL) | > 25 µM | > 100 µM |
| COc1cc2cnc(N3CCC(Nc4ccc(C(=O)O)cc4)CC3)nc2cc1OC [Compound 28, 4-[1-(6,7-Dimethoxyquinazolin-2-yl)piperidin-4-ylamino]benzoic acid] | > 20 µM | > 20 µM | – | – | – | – | – |
| COc1cc2nc(N3CCC(Nc4ccc(C(=O)O)cc4)CC3)nc(OC)c2cc1OC [Compound 29, 4-[1-(4,6,7-Trimethoxyquinazolin-2-yl)piperidin-4-ylamino]benzoic acid] | > 20 µM | > 20 µM | – | – | – | – | – |
| COc1cc2nc(N3CCC(Nc4ccc(C(=O)O)cc4)CC3)[nH]c(=O)c2cc1OC [Compound 30, 4-[1-(6,7-Dimethoxy-4-oxo-3,4-dihydroquinazolin-2-yl)piperidin-4-ylamino]benzoic acid] | > 20 µM | > 20 µM | – | – | – | – | – |
| COc1cc2nc(N3CCC(Nc4ccc(C(=O)O)cc4)CC3)nc(Nc3ccc(C)cc3)c2cc1OC [Compound 31, 4-[1-(6,7-Dimethoxy-4-p-tolylaminoquinazolin-2-yl)piperidin-4-ylamino]benzoic acid] | > 20 µM | > 20 µM | – | – | – | – | – |
| Nc1nc(N2CCC(Nc3ccc(C(=O)O)cc3)CC2)nc2ccccc12 [Compound 32, 4-[1-(4-Aminoquinazolin-2-yl)piperidin-4-ylamino]benzoic acid] | > 100 µM | > 100 µM | – | – | – | – | – |

From patent US6156758A, “Antibacterial quinazoline compounds” (Isis Pharmaceuticals, Inc., priority 1999, dated 2000)
